Reference: ChEMBL document CHEMBL3507680, “University of Dundee, Gates Library screen for HepG2 cell viability”

Assay: Human HepG2 cell viability assay in 384 well format
Type: toxicity, cell-based
Design: dose 125 nL, time 70.5 hour; concentration not given beside the values
Conditions: HepG2 cells, read-out: Inhibition

| SMILES | cytotoxicity at 70.5 h [%] |
| --- | --- |
| O=C1[C@H]2CN(S(=O)(=O)c3cccs3)C[C@H]2CN1CC1CC1 | -2.27 |
| C[C@H]1C[C@H]2CN(C(=O)C3=CCCC3)CC[C@H]2O1 | -9.81 |
| CC(C)CNC(=O)N1C[C@@H]2CCCN[C@@H]2C1 | -8.84 |
| CC(C)C(=O)N1CCC2(CC1)NC(=O)[C@H]1CN(C(=O)N(C)C)C[C@H]12 | -11.8 |
| CC(=O)N1CCCC2(CCN(C(=O)c3nccnc3N)CC2)C1 | 26.1 |
| CC(=O)N1CCCC2(C1)CN(C(=O)C1CCCCC1)CCO2 (stereo not drawn) | 23.5 |
| CC(=O)N1CCC2(CCCN(C(=O)CCN3CCCCC3)C2)C1 (stereo not drawn) | 20.2 |
| CC(=O)N1CCCC2(CCN(c3ccccc3)C2=O)C1 (stereo not drawn) | 12.8 |
| CN(C)C(=O)CN1CCC2(CCN(C(=O)N(C)C)CC2)C1=O | 17 |
| CCOCC(=O)N1CCCC2(CCN(c3ccccc3)C2=O)C1 (stereo not drawn) | -8.08 |
| CN1C(=O)CCC12CCN(Cc1ccco1)CC2 | -12.2 |
| CC(C)NC(=O)N1CCCC2(CCN(c3ccccc3)C2=O)C1 (stereo not drawn) | -7.73 |
| O=C(c1ccc[nH]1)N1CCOCC2(C1)CN(c1ccccc1)C(=O)CO2 (stereo not drawn) | -9.1 |
| CC(C)CCN1C2(CCN(C(=O)C3(C)CC3)C2)c2ccccc2S1(=O)=O (stereo not drawn) | -9.44 |
| CS(=O)(=O)N1CCc2sc(C(=O)NCCc3ccccn3)cc21 | -10.9 |
| CN(C)C(=O)CNC(=O)c1cc2c(s1)CCN2S(C)(=O)=O | -10.7 |
| COCCNC(=O)c1cc2c(s1)CCN2S(C)(=O)=O | -6.66 |
| CC(C)CCN1C2(CCN(c3ncccn3)C2)c2ccccc2S1(=O)=O (stereo not drawn) | -11.6 |
| Fc1cnc(N2CCO[C@H]3CN(CC4CCOC4)C[C@H]32)nc1 (stereo partly drawn) | 26.2 |
| Cc1ccc(CN2CC3(CCN(C(=O)Cc4ccc(Cl)cc4)C3)C2)o1 | -5.73 |
| CC[C@@H]1N(Cc2ccccn2)CCC[C@]12CCC(=O)N2CCOC | -5.82 |
| CC(C)NC(=O)[C@]12COC[C@H]1CN(Cc1cnn(C)c1)C2 | -4.74 |
| COC(=O)CCC(=O)N1CCC2(CN(Cc3ccccc3F)C2)C1 | -7.6 |
| CN(C)CCO[C@@H]1CC[C@H]2[C@H]1OCCN2C(=O)c1ccccc1F | -10.8 |
| Cn1cccc1CN1CCc2ncnc(-c3cccnc3)c2CC1 | -4.34 |
| CN(C)CCO[C@@H]1CC[C@H]2[C@H]1OCCN2C(=O)c1ccncc1 | -3.32 |

| SMILES | cytotoxicity at 70.5 h [%] |
| --- | --- |
| Cc1cccc(C(=O)N2CCO[C@H]3[C@H](OCCN(C)C)CC[C@@H]32)n1 | -3.76 |
| CC1=N[C@@]2(CC[C@@H]3CN(C(=O)NC(C)C)C[C@@H]32)C(=O)N1CC1CC1 | 1.82 |
| COCCN1C[C@@H](C)[C@@]2(COCCN(C(=O)c3ccoc3)C2)C1 | 1.95 |
| COCC(=O)N1CC[C@H]2OCC[C@@]2(c2nc(C)no2)C1 | 12.4 |
| CN(C)c1ncnc2c1CCN(c1cc(C(F)(F)F)ncn1)CC2 | -1.26 |
| CO[C@@H]1CCN(S(=O)(=O)c2cn(C)cn2)[C@H]1Cc1ccccc1 | -1.49 |
| CO[C@H]1CCN(S(=O)(=O)c2cn(C)cn2)[C@H]1Cc1ccncc1 | -0.309 |
| Cn1cc(CN2CCc3ncn(C)c3C2COCc2ccccc2)cn1 (stereo not drawn) | 2.01 |
| Cn1cnc2c1C(COCc1cccnc1)N(Cc1ccccc1)CC2 (stereo not drawn) | 2.08 |
| CCN1C(=O)[C@]2(CC[C@@H]3CN(C(=O)NCC(C)C)C[C@@H]32)N=C1C | -2.72 |
| CC1=N[C@@]2(CC[C@@H]3CN(C(=O)NC(C)C)C[C@@H]32)C(=O)N1CC(C)C | -3.41 |
| Cc1nc(COCc2cnc3n2CCN(C(=O)C2CC2)C3C)cs1 (stereo not drawn) | 11.4 |
| Cn1cc(N2CC3(CCN(S(C)(=O)=O)C3)CC2=O)cn1 (stereo not drawn) | 2.06 |
| CC(C)Oc1ncnc2c1CCN(Cc1cccs1)CC2 | -6.72 |
| COCC1CN(Cc2cc(C)on2)Cc2cn(C)nc21 (stereo not drawn) | 3.15 |
| O=C1NC(c2ccccc2)=N[C@@]12CC[C@@H]1CN(Cc3ccco3)C[C@@H]12 | -5.19 |
| O=C(NCc1ccco1)[C@@]12CCO[C@@H]1CCN(CCN1CCCC1)C2 | 8.62 |
| CCN1CC[C@@]2(C(=O)N3CCOCC3)CCN(S(=O)(=O)CC)CC[C@@H]12 | 3.2 |
| COCCN1CCC2(CC1)CN(C(=O)c1cccs1)CCO2 | 33.9 |
| CN(C)C(=O)CN1CCC2(CCN(CC3CC3)CC2)C1=O | 9.87 |
| c1coc(CN2CCC3(CC2)COC(COCC2CC2)C3)c1 (stereo not drawn) | 15.1 |
| CN1C(=O)CCCC12CCCN(Cc1cccs1)C2 (stereo not drawn) | -6.68 |
| COCCN1CCC2(CC1)CN(C(=O)c1ccccc1)CCO2 | -5.3 |
| CN(C)CC(=O)N1CCCC2(CCN(c3ccccc3)C2=O)C1 (stereo not drawn) | -9.67 |
| N#Cc1ccc(C(=O)N2CC[C@H]3[C@H]2CCN3CC2CC2)cc1 | -10.6 |
| C[C@@H]1CN(CCc2ccccc2)C[C@]12CCN(CC(=O)N(C)C)C2=O | -12.6 |

| SMILES | cytotoxicity at 70.5 h [%] |
| --- | --- |
| O=C(Cc1cccc(F)c1)N1C[C@H]2CN(Cc3ccccn3)C[C@H]2C1 | -6.98 |
| COCCC(=O)N1CCOCC2(CCN(Cc3cccs3)C2)C1 (stereo not drawn) | -12.3 |
| CC1c2ncc(CNC(=O)C3CC3)n2CCN1CC1CCC1 (stereo not drawn) | -10.3 |
| O=C([C@H]1C[C@@H]2CCN(c3cccc(F)c3)C[C@H]2O1)N1CCCCO1 | -13.4 |
| CC[C@@H]1N(Cc2ccc(OC)cc2)CCC[C@]12CCC(=O)N2CCOC | 16.8 |
| CS(=O)(=O)NC[C@@H]1OC[C@H]2CN(Cc3ccsc3)CC[C@H]21 | 18.6 |
| CC[C@@H]1N(Cc2ccc(F)cc2)CCC[C@]12CCC(=O)N2CCOC | 10.3 |
| Fc1cnc(N2CCO[C@H]3CN(CC4CCCCC4)C[C@H]32)nc1 | 17.9 |
| CN(C)CCO[C@@H]1CC[C@H]2[C@H]1OCCN2C(=O)c1ccc(F)cc1 | -1.79 |
| CC[C@@H]1N(Cc2nccs2)CCC[C@]12CCC(=O)N2CCOC | -2.16 |
| C[C@H]1CN(C)C[C@@]12COCCN(C(=O)Cc1ccccc1)C2 | 0.777 |
| c1csc(CN2CCCn3cnc(COCC4CC4)c3C2)n1 | -0.793 |
| COc1ccc(C[C@H]2CN(c3cc(OC)ncn3)CC[C@@H]2OC)cc1 | 4.78 |
| O=C(NCC1CC1)[C@@H]1CCO[C@@H]2CCN(c3ncccn3)C[C@@H]21 | -3.18 |
| CC(=O)N1CC(=O)N(c2ccccc2)CC12CCN(Cc1nccs1)C2 (stereo not drawn) | -3.72 |
| CC(C)NC(=O)[C@H]1C[C@@H]2[C@@H](C1)OCCN2Cc1cnn(C)c1 | -4.89 |
| Cn1cc(CN2CCn3c(CNC(=O)c4cccn4C)cnc3C2)cn1 | 4.31 |
| O=C(N[C@@H]1CN(Cc2ccccc2)C[C@@H]2CCCO[C@@H]21)C1CC1 | -1.76 |
| Cc1occc1C(=O)N1CCC[C@]2(C[C@@H](OCc3ccncc3)CO2)C1 | 6.49 |
| Cc1ccc(CN2CCC[C@]3(C(=O)O)CN(c4ncccn4)C[C@@H]3C2)o1 | 0.612 |
| COc1ccc(C[C@H]2CN(c3nnc(C)s3)CC[C@@H]2OC)cc1 | -0.42 |
| Cc1ccc(C(=O)N2CCC3(CC2)CC(c2ccccc2)C(=O)N3)cn1 (stereo not drawn) | 0.473 |
| COc1ccc(CN2C[C@H]3C[C@H](CN(C)C)O[C@H]3C2)cc1 | -5.86 |
| Cc1cnc(N2CC3(CCN(Cc4cccnc4)C3)C2)nc1 | -13.4 |
| COCCN1CCC2(CC1)CN(C(=O)Cc1cccnc1)CCO2 | -5.95 |
| O=C1[C@H]2CN(Cc3ccccc3)C[C@H]2CN1CCN1CCCC1 | -8.49 |

| SMILES | cytotoxicity at 70.5 h [%] |
| --- | --- |
| Fc1cccc(CN2C[C@@H]3CN(Cc4ccccn4)C[C@@H]3C2)c1 | -5.09 |
| O=C1[C@H]2CN(Cc3ccc(F)cc3)C[C@H]2CN1CCN1CCCC1 | 12.5 |
| Cc1ccc(CN2Cc3ccnn3CC(C(=O)NCC3CC3)C2)o1 (stereo not drawn) | -13.3 |
| CN(C)CCN1CCOCC12CCN(C(=O)C1CC1)CC2 | -10.1 |
| CN(C)CCOCc1nnc2n1CCN(Cc1ccoc1)CC2 | 36.2 |
| CN(C)CCOCc1nnc2n1CCN(Cc1ccc(F)cc1)CC2 | 23.8 |
| c1cncc(-c2ncnc3c2CCN(Cc2ccsc2)CC3)c1 | 19.2 |
| CN(C)C(=O)COCC1CN(Cc2cccs2)Cc2ncn(C)c21 (stereo not drawn) | 17.3 |
| CN(C)C(=O)COCC1CN(C2CCC2)Cc2ncn(C)c21 (stereo not drawn) | 22.5 |
| c1cncc(-c2ncnc3c2CCN(Cc2cccs2)CC3)c1 | 16.4 |
| CN(C)C(=O)COCC1CN(Cc2ccoc2)Cc2ncn(C)c21 (stereo not drawn) | -3.96 |
| c1cnc(N2CCO[C@H]3CN(CC4CC4)C[C@H]32)nc1 | -8.99 |
| O=C(NCc1ccccn1)[C@]12COC[C@H]1CN(Cc1ccccc1F)C2 | -7.42 |
| O=C(c1cccnc1)N1CCN2C[C@H](Oc3cncnc3)C[C@H]2C1 | -1.31 |
| c1ccc(NCc2cn3c(n2)CN(Cc2cccs2)CC3)nc1 | 8.31 |
| c1cc(CN2CCCn3cnc(COCC4CC4)c3C2)ccn1 | -2.95 |
| O=C(O)[C@]12CCCN(Cc3ccncc3)C[C@H]1CN(c1ncccn1)C2 | 2.52 |
| c1ccc(CN2CCc3ncnc(C4CCOC4)c3CC2)nc1 (stereo not drawn) | -2.85 |
| Cc1cccc(CN2C[C@H](NS(C)(=O)=O)[C@@H]3OCCC[C@@H]32)n1 | 4.73 |
| c1coc(CN2CCCC3(COCCN(Cc4c[nH]nn4)C3)C2)c1 (stereo not drawn) | -2.53 |
| CN(Cc1cccnc1)Cc1cn2c(n1)CN(C1CCOC1)CC2 (stereo not drawn) | -6.14 |
| O=C(NCc1ccccn1)[C@]12COC[C@H]1CN(Cc1cccnc1)C2 | -7.77 |
| Cc1ccc(CN2CC[C@@H]3[C@@H](CO[C@H]3CN3CCN(C)CC3)C2)s1 | 14.3 |
| Cc1ccc(CN2CC[C@@H]3[C@@H](CO[C@H]3CN3CCN(C)CC3)C2)cc1 | -0.515 |
| CN1CCN(Cc2cnc3n2CCN(Cc2cccnc2)CC3)CC1 | -1.41 |
